Results: patent US8729097B2, “Quinoline compounds as inhibitors of angiogenesis, human methionine aminopeptidase, and SIRT1, and methods of treating disorders” (The Johns Hopkins University, priority 2008, dated 2014)
Values joined by “and” are separate entries in the source; they are usually repeats but may differ in a detail not shown here. Equal values may be shown once.

Legend:
[1] = system: angiogenesis in Matrigel plugs; test: Matrigel plug assay in vivo; conditions: 60 mg/kg, i.p., nude mice, versus vehicle
Description: Female athymic nude mice (NCR nu/nu, 4-6 weeks old) were purchased from NCI-Frederick, Md. and treated in accordance with Johns Hopkins Animal Care and Use Committee procedures. […] Mice were pre-treated for 3 days before 0.5 mL of Matrigel (BD Biosciences) containing 150 ng/ml VEGF and 200 ng/ml bFGF was implanted subcutaneously. Drug treatment was continued daily for an additional 10 days. Mice were sacrificed, and Matrigel plugs were harvested, fixed in neutral buffered formalin, and processed for histology using MAS-trichrome staining. A cross-section of the entire Matrigel plug was photographed at ×100. And erythrocyte-filled blood vessels were counted per field in a blinded manner.

HUVEC = test: Endothelial cell tube formation assay; format: cell-based, human; conditions: Matrigel; EX527 1 μM, TNP470 10 nM
Description: HUVEC were seeded on a 96-well plate (2×10^4 cells/well) coated with Matrigel. The cells were then incubated for 16˜18 h in a humidified 5% CO2 incubator at 37° C. The cells were washed carefully with PBS once and Calcein-AM solution in PBS was then added to a final concentration of 2 μM. After incubation for an additional 30 min, the cells were washed carefully with PBS and observed under a fluorescence microscope (485 nm excitation/520 nm emission). The tube formed was quantified using AngioQuant v1.33 (The MathWorks).

[2] = system: breast cancer cells as well as human umbilical vein endothelial cells (HUVECs); test: Cell proliferation assay, breast cancer cells and HUVECs; format: cell-based; conditions: Homo sapiens, HUVEC, read-out: IC50 of proliferation, all the cell types
Description: Cell proliferation assay was performed using several different kinds of breast cancer cells as well as human umbilical vein endothelial cells (HUVECs). […].
HCC1954 cells were grown in RPMI1640 containing 10% FBS. HUVEC were grown using the EGM-2 bullet kit (Cambrex) as per manufacturer's instructions. The cells were maintained in a humidified incubator adjusted to 5% CO2. For drug screening, 10 mM stock solutions of Johns Hopkins Drug Library were arrayed in 96-well plates and screened at a final concentration of 10 μM. The cell growth was determined using a [^3H]-thymidine incorporation assay. Cells (typically 5,000 cells/well) were seeded in 96-well plates containing 0.2 ml of growth media and allowed to adhere for 24 h. The cells were then treated with drugs for 24 h. Cells were pulsed with 1 μCi [^3H]-thymidine (MP Biomedicals, 6.7 Ci mmol^−1) for 8 h and harvested, upon trypsin treatment, onto glass fiber filters (Wallac, Turku, Finland), from which ^3H counts were determined using a Perkin Elmer MicroBeta plate reader.

SirT3 = SirT3 (Homo sapiens, UniProt Q9NTG7); test: biochemical
Description: (§1) The sirtuin fluorometric assay kits were obtained from Biomol. The assay was conducted according to the manufacturer's instruction. One unit of SirT1 was used per reaction. For SirT2 and SirT3, 2 units were used for the assay.

hMetAP2 = target: T1, hMetAP2 (Homo sapiens, UniProt P50579); test: MetAP enzymatic assay, hMetAP2; format: biochemical; conditions: Co^2+ versus Mn^2+
T1 construct: made in house

HFF = HFF proliferation (selectivity); format: cell-based; conditions: Homo sapiens, HFF; Table 2
[3] = system: Saccharomyces cerevisiae strain BY4743; test: Yeast growth assay (wild type, map1Δ, map2Δ); format: cell-based; conditions: drug on paper disc
Source text: Saccharomyces cerevisiae strain BY4743 (MATa/α his3Δ1/his3Δ1 leu2Δ0/leu2Δ0 lys2Δ0/LYS2) and its isogenic haploid derivatives for MetAP1 (map1Δ) and MetAP2 (map2Δ) deletion mutants were used for yeast growth assays. Drugs dissolved in DMSO were spotted onto sterile filter disks and dried before experiments. Exponentially growing yeast strains were mixed with top agar and plated on YPD (1% yeast extract/2% peptone/2% glucose) plates. The filter disks were then placed on the YPD plates containing yeasts and the incubation was continued for 48 h at 30° C.

[4] = system: HCC1954 human breast cancer cells; test: Breast cancer xenografts; format: in vivo, mice
Description: Approximately two million of HCC1954 cells were injected bilaterally and subcutaneously into female athymic nude mice (NCR nu/nu, n=5/group). After tumors became palpable, control mice were treated with vehicle (peanut oil with 5% DMSO). […] The tumor volume was measured using a vernier caliper and calculated according to the modified ellipsoid formula: Tumor volume (mm^3)=(short axis)^2×(long axis)×π/6
After 30 days of treatment, the mice were sacrificed and the tumor tissues were extracted for immunohistochemical analysis and Western blots.

SirT1 = target: T2, SirT1 (Homo sapiens, UniProt Q96EB6); test: biochemical; conditions: SirT1 IC50, recombinant human sirtuin, fluorogenic substrate
T2 sequence (Q96EB6 1-747): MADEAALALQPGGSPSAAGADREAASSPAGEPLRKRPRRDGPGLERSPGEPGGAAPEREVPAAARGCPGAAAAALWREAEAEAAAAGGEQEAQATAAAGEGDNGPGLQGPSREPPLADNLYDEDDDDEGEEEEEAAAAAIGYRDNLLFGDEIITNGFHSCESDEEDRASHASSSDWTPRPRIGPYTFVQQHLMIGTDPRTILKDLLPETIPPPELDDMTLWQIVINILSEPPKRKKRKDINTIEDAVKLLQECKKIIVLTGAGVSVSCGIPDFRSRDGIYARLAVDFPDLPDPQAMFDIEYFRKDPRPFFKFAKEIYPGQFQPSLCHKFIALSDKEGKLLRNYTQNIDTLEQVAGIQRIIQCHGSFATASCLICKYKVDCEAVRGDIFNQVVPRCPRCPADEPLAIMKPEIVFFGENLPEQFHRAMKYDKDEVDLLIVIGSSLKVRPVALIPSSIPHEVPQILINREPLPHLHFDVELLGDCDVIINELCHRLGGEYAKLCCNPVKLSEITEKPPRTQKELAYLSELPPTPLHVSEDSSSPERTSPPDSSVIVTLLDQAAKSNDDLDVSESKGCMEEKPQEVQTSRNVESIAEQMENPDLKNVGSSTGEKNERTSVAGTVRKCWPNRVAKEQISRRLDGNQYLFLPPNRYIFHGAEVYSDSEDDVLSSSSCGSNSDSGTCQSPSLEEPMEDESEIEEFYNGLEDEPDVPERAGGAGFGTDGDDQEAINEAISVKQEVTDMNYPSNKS
Description: as §1

T1 sequence (P50579 whole entry): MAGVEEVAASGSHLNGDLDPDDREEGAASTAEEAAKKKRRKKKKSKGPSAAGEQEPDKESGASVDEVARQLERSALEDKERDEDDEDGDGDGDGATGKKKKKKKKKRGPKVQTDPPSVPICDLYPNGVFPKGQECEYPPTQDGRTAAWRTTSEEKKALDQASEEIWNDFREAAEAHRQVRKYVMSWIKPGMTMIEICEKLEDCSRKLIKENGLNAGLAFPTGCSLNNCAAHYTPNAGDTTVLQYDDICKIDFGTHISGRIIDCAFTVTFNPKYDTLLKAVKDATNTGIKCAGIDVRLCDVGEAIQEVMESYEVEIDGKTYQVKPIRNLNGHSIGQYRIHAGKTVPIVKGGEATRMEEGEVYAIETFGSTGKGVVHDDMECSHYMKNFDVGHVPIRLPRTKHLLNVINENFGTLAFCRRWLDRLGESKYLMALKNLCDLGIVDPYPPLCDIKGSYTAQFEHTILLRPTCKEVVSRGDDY
Sequence of SirT3 (Q9NTG7 whole entry): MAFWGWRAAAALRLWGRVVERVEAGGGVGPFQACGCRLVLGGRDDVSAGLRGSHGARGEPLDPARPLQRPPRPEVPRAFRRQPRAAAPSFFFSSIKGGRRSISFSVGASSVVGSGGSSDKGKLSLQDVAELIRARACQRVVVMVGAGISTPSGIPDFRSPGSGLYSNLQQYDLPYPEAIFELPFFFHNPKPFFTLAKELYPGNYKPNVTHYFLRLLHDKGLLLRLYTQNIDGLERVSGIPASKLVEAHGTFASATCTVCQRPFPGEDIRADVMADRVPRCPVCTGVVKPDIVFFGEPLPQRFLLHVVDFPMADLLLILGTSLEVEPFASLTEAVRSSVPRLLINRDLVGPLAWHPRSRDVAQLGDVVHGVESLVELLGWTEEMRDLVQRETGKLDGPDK

Question: For O=[N+]([O-])c1ccc(O)c2ncccc12 [Entry 1c, nitroxoline], which “density of new blood vessels in Matrigel plugs” value [1] is on record?
Answer: The value was “dramatic reduction in the density of new blood vessels”.

Question: What about the HUVEC tube formation (HUVEC) of the same compound?
Answer: The HUVEC tube formation was “inhibited”.

Question: And the IC50 [2]?
Answer: Its IC50 is 2 to 5 µM.

Question: What about the IC50 (SirT3) of the same compound?
Answer: Its IC50 is > 50 µM.

Question: What about the “potency on MetAP-2 with Co^2+ lower than with Mn^2+” value (hMetAP2) of the same compound?
Answer: Its value is 25 fold.

Question: And the IC50 (HFF)?
Answer: The IC50 was 13.6 µM.

Question: What about the “growth of MetAP-1 deletion mutant (map1Δ)” value ([3]; map1Δ) of the same compound?
Answer: Its value is “significantly inhibited”.

Question: What about the “growth of MetAP-2 deletion mutant” value ([3]; map2Δ) of the same compound?
Answer: Its value is “did not affect the growth”.

Question: And the “growth of wild-type yeast” value ([3]; wild type)?
Answer: The value was “did not inhibit the yeast growth”.

Question: And the “level of p53 protein in tumor tissues” value ([4]; Western blot of tumor tissues)?
Answer: Its value is “increased”.

Question: And the “p53 acetylation in tumor tissues” value ([4]; Western blot of tumor tissues)?
Answer: The value was “significantly induced p53 acetylation”.

Question: What about the tumor-associated angiogenesis ([4]; anti-CD31 immunohistochemical staining) of the same compound?
Answer: Its tumor-associated angiogenesis is “strongly inhibited”.

Question: And the “inhibition of growth of HCC1954 xenografts” value ([4]; day 30, 60 mg/kg i.p., nude mice)?
Answer: Its value is 55%.

Question: And the IC50 (SirT1)?
Answer: The IC50 was 8 µM and 8.5 µM.
